Data: ChEMBL document CHEMBL4680294, “Synthesis of nature product kinsenoside analogues with anti-inflammatory activity” (Bioorg Med Chem, 2021)
The source made the active and inactive calls. The calls are words filed in the database; no cut-off is given here.

Legend:
RAW264.7 [1] = test: Antiinflammatory activity against mouse RAW 264.7 cells assessed as inhibition of LPS-induced NO production incubated for 24 hrs by Griess assay; assay type: functional, cell-based; conditions: RAW264.7, 24 h
RAW264.7 [2] = test: Antiinflammatory activity against mouse RAW 264.7 cells assessed as inhibition of LPS-induced IkappaB-alpha level preincubated for 1 hr followed by LPS addition measured after 16 hrs by Western blot analysis; assay type: functional, cell-based; conditions: time 17.0 hrs
RAW264.7 [3] = test: Antiinflammatory activity against mouse RAW 264.7 cells assessed as inhibition of LPS-induced […] p-p65 level preincubated for 1 hr followed by LPS addition measured after 16 hrs by Western blot analysis; assay type: functional, cell-based; conditions: time 17.0 hrs
RAW264.7 [4] = test: Cytotoxicity against mouse RAW 264.7 cells incubated for 24 hrs by MTT assay; assay type: cell-based; conditions: raw264.7, 24 h
RAW264.7 [5] = test: Antiinflammatory activity against mouse RAW 264.7 cells assessed as inhibition of LPS-induced IL-1alpha mRNA level upto 50 uM preincubated for 1 hr followed by LPS addition measured after 16 hrs by RT-PCR analysis; assay type: functional, cell-based; conditions: dose microM <=50, time 17.0 hrs
RAW264.7 [6] = test: Antiinflammatory activity against mouse RAW 264.7 cells assessed as inhibition of LPS-induced IL-1beta mRNA level upto 50 uM preincubated for 1 hr followed by LPS addition measured after 16 hrs by RT-PCR analysis; assay type: functional, cell-based; conditions: dose microM <=50, time 17.0 hrs
RAW264.7 [7] = test: Antiinflammatory activity against mouse RAW 264.7 cells assessed as inhibition of LPS-induced IL-6 mRNA level upto 50 uM preincubated for 1 hr followed by LPS addition measured after 16 hrs by RT-PCR analysis; assay type: functional, cell-based; conditions: dose microM <=50, time 17.0 hrs
RAW264.7 [8] = test: Antiinflammatory activity against mouse RAW 264.7 cells assessed as inhibition of LPS-induced TNF-alpha mRNA level upto 50 uM preincubated for 1 hr followed by LPS addition measured after 16 hrs by RT-PCR analysis; assay type: functional, cell-based; conditions: dose microM <=50, time 17.0 hrs
RAW264.7 [9] = test: Antiinflammatory activity against mouse RAW 264.7 cells assessed as inhibition of LPS-induced COX2 production preincubated for 1 hr followed by LPS addition measured after 16 hrs by Western blot analysis; assay type: functional, cell-based; conditions: time 17.0 hrs
RAW264.7 [10] = test: Antiinflammatory activity against mouse RAW 264.7 cells assessed as inhibition of LPS-induced iNOS production preincubated for 1 hr followed by LPS addition measured after 16 hrs by Western blot analysis; assay type: functional, cell-based; conditions: time 17.0 hrs
RAW264.7 [11] = test: Antiinflammatory activity against mouse RAW 264.7 cells assessed as inhibition of LPS-induced translocation into nucleus upto 50 uM by preincubated for 1 hr followed by LPS addition measured after 16 hrs by immunofluorescence assay; assay type: functional, cell-based; conditions: dose microM <=50, time 17.0 hrs
RAW264.7 [12] = test: Antiinflammatory activity against mouse RAW 264.7 cells assessed as inhibition of LPS-induced NO production at 50 uM incubated for 24 hrs by Griess assay relative to control; assay type: functional
RAW264.7 [13] = test: Antiinflammatory activity against mouse RAW 264.7 cells assessed as inhibition of LPS-induced COX2 production at 50 uM preincubated for 1 hr followed by LPS addition measured after 16 hrs by Western blot analysis; assay type: functional, cell-based; conditions: time 17.0 hrs
RAW264.7 [14] = test: Antiinflammatory activity against mouse RAW 264.7 cells assessed as inhibition of LPS-induced iNOS production at 50 uM preincubated for 1 hr followed by LPS addition measured after 16 hrs by Western blot analysis; assay type: functional, cell-based; conditions: time 17.0 hrs
RAW264.7 [15] = test: Antiinflammatory activity against mouse RAW 264.7 cells assessed as inhibition of LPS-induced translocation into nucleus at 50 uM by preincubated for 1 hr followed by LPS addition measured after 16 hrs by immunofluorescence assay; assay type: functional, cell-based; conditions: time 17.0 hrs
RAW264.7 [16] = test: Antiinflammatory activity against mouse RAW 264.7 cells assessed as inhibition of LPS-induced IL-1alpha mRNA level at 50 uM preincubated for 1 hr followed by LPS addition measured after 16 hrs by RT-PCR analysis; assay type: functional, cell-based; conditions: time 17.0 hrs
RAW264.7 [17] = test: Antiinflammatory activity against mouse RAW 264.7 cells assessed as inhibition of LPS-induced IL-1beta mRNA level at 50 uM preincubated for 1 hr followed by LPS addition measured after 16 hrs by RT-PCR analysis; assay type: functional, cell-based; conditions: time 17.0 hrs
RAW264.7 [18] = test: Antiinflammatory activity against mouse RAW 264.7 cells assessed as inhibition of LPS-induced IL-6 mRNA level at 50 uM preincubated for 1 hr followed by LPS addition measured after 16 hrs by RT-PCR analysis; assay type: functional, cell-based; conditions: time 17.0 hrs
RAW264.7 [19] = test: Antiinflammatory activity against mouse RAW 264.7 cells assessed as inhibition of LPS-induced TNF-alpha mRNA level at 50 uM preincubated for 1 hr followed by LPS addition measured after 16 hrs by RT-PCR analysis; assay type: functional, cell-based; conditions: time 17.0 hrs

Compound `C[C@@H]1O[C@@H](O[C@@H]2CC(=O)N(Cc3ccccc3)C2)[C@H](O)[C@H](O)[C@H]1O` has an IC50 (RAW264.7 [1]) of 56 µM.
In the case of `C[C@@H]1O[C@@H](O[C@H]2CNC(=O)C2)[C@H](O)[C@H](O)[C@H]1O`, the IC50 (RAW264.7 [1]) is reported as 116 µM.
`O=C1C[C@H](O[C@H]2O[C@H](CO)[C@@H](O)[C@H](O)[C@H]2O)CN1Cc1ccccc1` showed an IC50 (RAW264.7 [1]) of 105 µM.
`C[C@@H]1O[C@@H](O[C@@H]2COC(=O)C2)[C@H](O)[C@H](O)[C@H]1O` was tested, and the IC50 (RAW264.7 [1]) was 60.7 µM.
In the case of `C[C@@H]1O[C@@H](O[C@H]2CC(=O)N(Cc3ccccc3)C2)[C@H](O)[C@H](O)[C@H]1O`, the IC50 (RAW264.7 [1]) is reported as 69.7 µM.
`O=C1C[C@H](O[C@H]2O[C@H](CO)[C@@H](O)[C@H](O)[C@H]2O)CN1` gave an IC50 (RAW264.7 [1]) of 80.9 µM.
In the case of `O=C1C[C@H](O[C@@H]2O[C@H](CO)[C@@H](O)[C@H](O)[C@H]2O)CO1` [GOODYEROSIDE], the inhibition (RAW264.7 [2]) is reported as “Active”, the inhibition (RAW264.7 [3]) is reported as “Active” and the IC50 (RAW264.7 [1]) is reported as 27.9 µM. For the same compound, the Activity (RAW264.7 [4]) was “Non-Toxic”, the inhibition (RAW264.7 [5]) was “Active” and the inhibition (RAW264.7 [6]) was “Active”. The inhibition (RAW264.7 [7]) was “Active”, the inhibition (RAW264.7 [8]) was “Active” and the inhibition (RAW264.7 [9]) was “Dose-dependent effect”. The inhibition (RAW264.7 [10]) was “Dose-dependent effect” and the inhibition (RAW264.7 [11]) was “Active”.
In the case of `O=C1C[C@@H](O[C@H]2O[C@H](CO)[C@@H](O)[C@H](O)[C@H]2O)CN1Cc1ccccc1`, the IC50 (RAW264.7 [1]) is reported as 72.5 µM.
For `O=C1C[C@H](O[C@H]2O[C@H](CO)[C@@H](O)[C@H](O)[C@@H]2O)CO1`, the IC50 (RAW264.7 [1]) was 38.7 µM and the Activity (RAW264.7 [4]) was “Non-Toxic”.
`O=C1C[C@H](O[C@H]2O[C@H](CO)[C@@H](O)[C@H](O)[C@@H]2O)CN1Cc1ccccc1` was tested, and the IC50 (RAW264.7 [1]) was 64 µM.
In the case of `O=C1C[C@@H](O[C@H]2O[C@H](CO)[C@@H](O)[C@H](O)[C@@H]2O)CN1`, the IC50 (RAW264.7 [1]) is reported as 108 µM.
In the case of `O=C1C[C@H](O[C@H]2O[C@H](CO)[C@@H](O)[C@H](O)[C@@H]2O)CN1`, the IC50 (RAW264.7 [1]) is reported as 67.1 µM.
Compound `C[C@@H]1O[C@@H](O[C@@H]2CNC(=O)C2)[C@H](O)[C@H](O)[C@H]1O` has an IC50 (RAW264.7 [1]) of 66.9 µM.
In the case of `O=C1C[C@@H](O[C@@H]2O[C@H](CO)[C@@H](O)[C@H](O)[C@H]2O)CO1`, the IC50 (RAW264.7 [1]) is reported as 41.9 µM and the Activity (RAW264.7 [4]) is reported as “Non-Toxic”.
`O=C1C[C@@H](O[C@H]2O[C@H](CO)[C@@H](O)[C@H](O)[C@@H]2O)CN1Cc1ccccc1` was tested, and the IC50 (RAW264.7 [1]) was 97.2 µM.
With `O=C(NO)c1ccc(O)c(O)c1` the inhibition at 50 µM (RAW264.7 [12]) was 70%, the inhibition (RAW264.7 [13]) was “Active” and the inhibition (RAW264.7 [14]) was “Active”. The inhibition (RAW264.7 [15]) was “Active”, the inhibition (RAW264.7 [16]) was “Active” and the inhibition (RAW264.7 [17]) was “Active”. For the same compound, the inhibition (RAW264.7 [18]) was “Active” and the inhibition (RAW264.7 [19]) was “Active”.
For `O=C1C[C@@H](O[C@H]2O[C@H](CO)[C@@H](O)[C@H](O)[C@H]2O)CN1`, the IC50 (RAW264.7 [1]) was 89 µM.
`O=C1C[C@H](O[C@H]2O[C@H](CO)[C@H](O)[C@H](O)[C@H]2O)CO1` gave an IC50 (RAW264.7 [1]) of 66.5 µM.
`C[C@@H]1O[C@@H](O[C@H]2COC(=O)C2)[C@H](O)[C@H](O)[C@H]1O` was tested, and the IC50 (RAW264.7 [1]) was 41.2 µM and the Activity (RAW264.7 [4]) was “Non-Toxic”.
`O=C1C[C@@H](O[C@@H]2O[C@H](CO)[C@H](O)[C@H](O)[C@H]2O)CO1` was tested, and the IC50 (RAW264.7 [1]) was 41.5 µM and the Activity (RAW264.7 [4]) was “Non-Toxic”.
`O=C1C[C@@H](O[C@H]2O[C@H](CO)[C@@H](O)[C@H](O)[C@@H]2O)CO1` was tested, and the IC50 (RAW264.7 [1]) was 42.9 µM and the Activity (RAW264.7 [4]) was “Non-Toxic”.
`O=C1C[C@H](O[C@H]2O[C@H](CO)[C@@H](O)[C@H](O)[C@H]2O)CO1` showed an IC50 (RAW264.7 [1]) of 91.3 µM.
